Each compound was assayed against T1, NMDA receptor composed of four subunits including 2 sets of heterodimers of NR1 and NR2B (Homo sapiens, UniProt Q13224) (assay: NR2B Ca2+ influx assay (FLIPR, Fluo-4) in HEK293 cells expressing human GRIN1 and GRIN2B). Settings: 10 μM final compound concentration, glutamic acid/glycine-induced Ca2+ influx.
T1 construct: host or cells: HEK293 (tetracycline-induced expression)
Format: cell-based
Text: To confirm the “antagonistic action on an NMDA receptor containing the NR2B subunit” of the compound of the present invention, human embryonic kidney cell expressing the “NMDA receptor composed of four subunits including 2 sets of heterodimers of NR1 and NR2B”, specifically HEK293 cell expressing human glutamate ionotropic receptor NMDA type subunit 1 (GRIN1) and human glutamate ionotropic receptor NMDA type subunit 2B (GRIN2B), was used and the activation suppressive effect on the receptors was measured.
As an index of the NMDA receptor activation, intracellular calcium ion (Ca^2+) influx caused by the binding of glycine and glutamic acid with NR1 and NR2B, respectively, was used. HEK293 cells were purchased from ChanTest. The cells were cultured in a DMEM/F-12 (COSMO BIO, 10-092-CM) medium added with 10% FBS′(fetal bovine serum, AusGene), 100 units/mL penicillin, 100 μg/mL streptomycin, 500 μg/mL neomycin, 100 μg/mL Zeocin, 5 μg/mL Blasticidin at 37° C., 5% CO2. The cells were detached from flask with trypsin the day before the assay, suspended in a seeding medium (DMEM (Invitrogen, 31053) added with 10% FBS, 100 units/mL penicillin, 100 μg/mL streptomycin) at 8×10^5 cells/mL, seeded by 25 μL per well in a 384-well plate (Falcon, 356663) at 20000 cells/well, and cultured overnight in an incubator. On the day of the assay, tetracycline (Wako Pure Chemical Industries, Ltd., 209-16561) was diluted with the seeding medium at 2 μg/mL, added at […] to the plate seeded with the cells, and cultured for 2 hr in an incubator. Thereafter, the medium was removed, and the cells were washed with 50 μL/well assay buffer (137 mM NaCl, 4 mM KCl, 1.8 mM CaCl2, 10 mM HEPES (pH 7.2), 10 mM Glucose, 0.1% BSA). Then, a loading buffer (assay buffer added with 2.5 uM Fluo-4AM, 2 mM Amaranth, 1 mM Tartrazine) was added at 25 μL/well, and loading was performed in the incubator for 30 min, and at room temperature for 15 min. A solution (25 μL) of the Example compound diluted with the above-mentioned assay buffer at 30 μM (final concentration 10 μM) was added, and the cells were stood for 15 min at room temperature. Using FLIPR (Molecular Devices), 25 μL of an assay buffer containing 30 μM glutamic acid, 30 μM glycine was added, and the fluorescence signal was measured every 3 seconds for 5 min. The inhibitory activity was calculated as a relative activity value (inhibitory rate) that inhibits 100% of the cumulative value of the fluorescence value of a well added with a buffer free of glutamic acid, glycine, relative to the cumulative value of the fluorescence value of each well.

T1 sequence (Q13224 27-1484, other chains not shown): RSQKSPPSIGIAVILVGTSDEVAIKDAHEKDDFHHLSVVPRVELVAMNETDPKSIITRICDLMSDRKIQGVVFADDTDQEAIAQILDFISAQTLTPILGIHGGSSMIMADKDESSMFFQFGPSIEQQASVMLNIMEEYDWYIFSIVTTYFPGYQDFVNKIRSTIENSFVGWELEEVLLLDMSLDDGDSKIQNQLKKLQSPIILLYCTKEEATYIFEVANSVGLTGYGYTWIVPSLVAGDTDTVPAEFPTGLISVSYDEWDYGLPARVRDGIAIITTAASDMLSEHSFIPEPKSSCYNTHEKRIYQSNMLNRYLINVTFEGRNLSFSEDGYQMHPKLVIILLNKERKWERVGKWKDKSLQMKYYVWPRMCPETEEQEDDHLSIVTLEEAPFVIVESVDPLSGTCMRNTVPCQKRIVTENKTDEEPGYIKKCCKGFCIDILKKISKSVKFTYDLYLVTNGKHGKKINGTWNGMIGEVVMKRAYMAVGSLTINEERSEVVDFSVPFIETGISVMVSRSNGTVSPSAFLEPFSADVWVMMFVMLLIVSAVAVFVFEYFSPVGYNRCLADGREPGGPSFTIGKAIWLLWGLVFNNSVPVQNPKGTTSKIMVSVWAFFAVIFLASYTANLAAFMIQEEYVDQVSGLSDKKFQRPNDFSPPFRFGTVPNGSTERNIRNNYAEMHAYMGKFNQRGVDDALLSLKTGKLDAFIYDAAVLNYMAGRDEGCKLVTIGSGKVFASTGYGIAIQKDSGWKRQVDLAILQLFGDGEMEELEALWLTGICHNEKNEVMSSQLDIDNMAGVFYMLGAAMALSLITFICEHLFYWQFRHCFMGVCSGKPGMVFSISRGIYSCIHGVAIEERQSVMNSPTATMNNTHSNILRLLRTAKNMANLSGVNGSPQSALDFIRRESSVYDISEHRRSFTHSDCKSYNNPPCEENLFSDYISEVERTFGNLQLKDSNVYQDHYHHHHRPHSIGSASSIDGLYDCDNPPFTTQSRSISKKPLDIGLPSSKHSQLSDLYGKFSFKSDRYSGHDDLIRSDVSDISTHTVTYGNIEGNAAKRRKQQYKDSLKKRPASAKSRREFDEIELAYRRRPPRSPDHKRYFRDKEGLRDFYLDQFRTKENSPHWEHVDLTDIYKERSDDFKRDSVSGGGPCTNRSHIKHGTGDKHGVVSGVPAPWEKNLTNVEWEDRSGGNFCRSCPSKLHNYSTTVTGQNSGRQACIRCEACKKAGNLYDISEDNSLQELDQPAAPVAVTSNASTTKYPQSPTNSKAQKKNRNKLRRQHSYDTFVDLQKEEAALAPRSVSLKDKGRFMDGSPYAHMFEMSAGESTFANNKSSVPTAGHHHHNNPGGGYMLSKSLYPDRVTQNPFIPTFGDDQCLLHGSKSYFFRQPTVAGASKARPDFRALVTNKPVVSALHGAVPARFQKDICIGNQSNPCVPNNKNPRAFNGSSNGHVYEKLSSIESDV

With `COc1ccc2ncn(C)c2c1CNC(=O)c1ccc(C(F)(F)F)s1` [Example 50, N-((6-methoxy-1-methyl-1H-benzimidazol-7-yl)-methyl)-5-(trifluoro-methyl)thiophene-2-carboxainide] the “inhibitory rate (10 μM compound concentration)” value was 89.

Same assay, conditions: HEK293, 10 μM final compound concentration, glutamic acid/glycine-induced Ca2+ influx, read-out: inhibitory rate (10 μM compound concentration)

Going from `COc1ccc2ncn(C)c2c1CNC(=O)c1ccc(F)c(Cl)c1` [Example 37, 3-chloro-4-fluoro-N-((6-methoxy-1-methyl-1H-benzimidazol-7-yl)methyl)benzamide] to `COc1ccc2ncn(C)c2c1CNC(=O)c1ccc(Cl)c(F)c1` [Example 44, 4-chloro-3-fluoro-N-((6-methoxy-1-methyl-1H-benzimidazol-7-yl)methyl)benzamide], the inhibition at 10 µM falls from 91% to 89%.

`COc1ccc2ncn(C)c2c1CNC(=O)c1ccc(C)c(Cl)c1` [Example 38, 3-chloro-N-((6-methoxy-1-methyl-1H-benzimidazol-7-yl)-methyl)-4-methylbenzamide] and `COc1ccc2ncn(C)c2c1CNC(=O)c1ccc(Cl)c(C)c1` [Example 39, 4-chloro-N-((6-methoxy-1-methyl-1H-benzimidazol-7-yl)-methyl)-3-methyl-benzamide] are the same in inhibition at 10 µM: 91% for the first, 91% for the second.

Going from `COc1ccc2ncn(C)c2c1CNC(=O)c1ccc(F)c(C(F)(F)F)c1` [Example 40, 4-fluoro-N-((6-methoxy-1-methyl-1H-benzimidazol-7-yl)methyl)-3-(trifluoro-methyl)benzamide] to `COc1ccc2ncn(C)c2c1CNC(=O)c1ccc(C)c(C(F)(F)F)c1` [Example 47, N-((6-methoxy-1-methyl-1H-benzimidazol-7-yl)-methyl)-4-methyl-3-(trifluoromethyl)benzamide], the inhibition at 10 µM falls from 89% to 85%.

Going from `COc1ccc2ncn(C)c2c1CNC(=O)c1cc(F)c(F)c(F)c1` [Example 41, 3,4,5-trifluoro-N-((6-methoxy-1-methyl-1H-benzimidazol-7-yl)methyl)benzamide] to `COc1ccc2ncn(C)c2c1CNC(=O)c1cc(C)c(F)c(F)c1` [Example 54, 3,4-difluoro-N-((6-methoxy-1-methyl-1H-benzimidazol-7-yl)-methyl)-5-methyl-benzamide], the inhibition at 10 µM falls from 90% to 85%.

Going from `COc1ccc2ncn(C)c2c1CNC(=O)c1cc(Cl)cs1` [Example 42, 4-chloro-N-((6-methoxy-1-methyl-1H-benzimidazol-7-yl)-methyl)thiophene-2-carboxamide] to `COc1ccc2ncn(C)c2c1CNC(=O)c1cc(C)cs1` [Example 43, N-((6-methoxy-1-methyl-1H-benzimidazol-7-yl)-methyl)-4-methylthiophene-2-carboxamide], the inhibition at 10 µM falls from 87% to 61%.

Compared with `COc1cc(C(=O)NCc2c(OC)ccc3ncn(C)c23)ccc1Cl` [Example 45, 4-chloro-3-methoxy-N-((6-methoxy-1-methyl-1H-benzimidazol-7-yl)methyl)benzamide], `COc1cc(C(=O)NCc2c(OC)ccc3ncn(C)c23)ccc1F` [Example 46, 4-fluoro-3-methoxy-N-((6-methoxy-1-methyl-1H-benzimidazol-7-yl)methyl)benzamide] is higher in inhibition at 10 µM: 64% for the first, 68% for the second.

First: COc1ccc(C(=O)NCc2c(OC)ccc3ncn(C)c23)s1 [Example 48, 5-methoxy-N-((6-methoxy-1-methyl-1H-benzimidazol-7-yl)methyl)thiophene-2-carboxamide]
Second: COc1ccc2ncn(C)c2c1CNC(=O)c1cc(Cl)c(Cl)s1 [Example 53, 4,5-dichloro-N-((6-methoxy-1-methyl-1H-benzimidazol-7-yl)-methyl)thiophene-2-carboxamide]
The inhibition at 10 µM of the first is lower: 84% for the first, 91% for the second.

First: COc1ccc2ncn(C)c2c1CNC(=O)c1cc(Cl)c(F)c(Cl)c1 [Example 49, 3,5-dichloro-4-fluoro-N-((6-methoxy-1-methyl-1H-benzimidazol-7-yl)methyl)benzamide]
Second: COc1ccc2ncn(C)c2c1CNC(=O)c1cc(F)c(Cl)c(Cl)c1 [Example 55, 3,4-dichloro-5-fluoro-N-((6-methoxy-1-methyl-1H-benzimidazol-7-yl)methyl)benzamide]
The inhibition at 10 µM of the first is lower: 69% for the first, 90% for the second.

Going from `COc1ccc2ncn(C)c2c1CNC(=O)c1ccc(C(F)(F)F)c(Cl)c1` [Example 51, 3-chloro-N-((6-methoxy-1-methyl-1H-benzimidazol-7-yl)-methyl)-4-(trifluoro-methyl)benzamide] to `Cc1ccc2ncn(C)c2c1CNC(=O)c1ccc(OC(F)(F)F)c(Cl)c1` [Example 60, 3-chloro-N-((1,6-dimethyl-1H-benzimidazol-7-yl)-methyl)-4-(trifluoro-methoxy)benzamide], the inhibition at 10 µM rises from 90% to 94%.

Going from `COc1ccc2ncn(C)c2c1CNC(=O)c1ccc(OC(F)(F)F)c(F)c1` [Example 52, 3-fluoro-N-((6-methoxy-1-methyl-1H-benzimidazol-7-yl)methyl)-4-(trifluoro-methoxy)benzamide] to `COc1ccc2ncn(C)c2c1CNC(=O)c1ccc(OC(F)(F)F)nc1` [Example 56, ((6-methoxy-1-methyl-1H-benzimidazol-7-yl)methyl)-6-(trifluoro-methoxy)nicotinamide], the inhibition at 10 µM rises from 91% to 93%.

Going from `COc1ccc2ncn(C)c2c1CNC(=O)c1cnc(OC)c(Cl)c1` [Example 57, 5-chloro-6-methoxy-N-((6-methoxy-1-methyl-1H-benzimidazol-7-yl)methyl)nicotinamide] to `CCOc1ncc(C(=O)NCc2c(OC)ccc3ncn(C)c23)cc1Cl` [Example 58, 5-chloro-6-ethoxy-N-((6-methoxy-1-methyl-1H-benzimidazol-7-yl)methyl)nicotinamide], the inhibition at 10 µM rises from 91% to 93%.

First: COc1ccc2ncn(C)c2c1CNC(=O)c1cnc(OC(F)F)c(F)c1 [Example 59, 6-(difluoromethoxy)-5-fluoro-N-((6-methoxy-1-methyl-1H-benzimidazol-7-yl)-methyl)nicotinamide]
Second: COc1csc(C(=O)NCc2c(C3CC3)ccc3[nH]ncc23)c1 [Example 68, N-((5-cyclopropyl-1H-indazol-4-yl)methyl)-methoxythiophene-2-carboxamide]
The inhibition at 10 µM of the first is higher: 94% for the first, 86% for the second.

`O=C(NCc1c(C2CC2)ccc2[nH]ncc12)c1ccc(C(F)(F)F)cc1` [Example 61, N-((5-cyclopropyl-1H-indazol-4-yl)methyl)-4-(trifluoromethyl)-benzamide] and `O=C(NCc1c(C2CC2)ccc2[nH]ncc12)c1ccc(OC(F)(F)F)cc1` [Example 62, N-((5-cyclopropyl-1H-indazol-4-yl)methyl)-4-(trifluoromethoxy)-benzamide] are the same in inhibition at 10 µM: 94% for the first, 94% for the second.

Compared with `Cc1csc(C(=O)NCc2c(C3CC3)ccc3[nH]ncc23)c1` [Example 63, N-((5-cyclopropyl-1H-indazol-4-yl)methyl)-methylthiophene-2-carboxamide], `O=C(NCc1c(C2CC2)ccc2[nH]ncc12)c1cc(Cl)cs1` [Example 70, 4-chloro-N-((5-cyclopropyl-1H-indazol-4-yl)methyl)thiophene-2-carboxamide] is higher in inhibition at 10 µM: 89% for the first, 92% for the second.

Compared with `Cc1ccc(C(=O)NCc2c(C3CC3)ccc3[nH]ncc23)s1` [Example 64, N-((5-cyclopropyl-1H-indazol-4-yl)methyl)-methylthiophene-2-carboxamide], `COc1ccc(C(=O)NCc2c(C3CC3)ccc3[nH]ncc23)s1` [Example 67, N-((5-cyclopropyl-1H-indazol-4-yl)methyl)-methoxythiophene-2-carboxamide] is higher in inhibition at 10 µM: 91% for the first, 92% for the second.

Compared with `O=C(Cc1cccs1)NCc1c(C2CC2)ccc2[nH]ncc12` [Example 65, N-((5-cyclopropyl-1H-indazol-4-yl)methyl)-2-(2-thienyl)acetamide], `Cc1cc(C(=O)NCc2c(C3CC3)ccc3[nH]ncc23)cs1` [Example 66, N-((5-cyclopropyl-1H-indazol-4-yl)methyl)-methylthiophene-3-carboxamide] is higher in inhibition at 10 µM: 90% for the first, 91% for the second.

`O=C(NCc1c(C2CC2)ccc2[nH]ncc12)c1csc(Cl)c1` [Example 69, 5-chloro-N-((5-cyclopropyl-1H-indazol-4-yl)methyl)thiophene-3-carboxamide] gave an inhibition at 10 µM of 93%.

Reference: patent US11230541B2, “Heterocyclic compound” (Takeda Pharmaceutical Company Limited, priority 2017, dated 2022)
